{"source": "paper PMC4706532", "about": "“Diarylthiophenes as inhibitors of the pore-forming protein perforin” (Bioorganic & Medicinal Chemistry Letters, 2016)", "key": {"perforin": {"test_system": "perforin", "parameters": "method as in earlier work", "settings": "compound concentration 100 µM; cited from earlier work"}, "recombinant perforin": {"target": "T1, recombinant perforin (Mus musculus, UniProt P10820)", "T1 sequence (P10820 21-554)": "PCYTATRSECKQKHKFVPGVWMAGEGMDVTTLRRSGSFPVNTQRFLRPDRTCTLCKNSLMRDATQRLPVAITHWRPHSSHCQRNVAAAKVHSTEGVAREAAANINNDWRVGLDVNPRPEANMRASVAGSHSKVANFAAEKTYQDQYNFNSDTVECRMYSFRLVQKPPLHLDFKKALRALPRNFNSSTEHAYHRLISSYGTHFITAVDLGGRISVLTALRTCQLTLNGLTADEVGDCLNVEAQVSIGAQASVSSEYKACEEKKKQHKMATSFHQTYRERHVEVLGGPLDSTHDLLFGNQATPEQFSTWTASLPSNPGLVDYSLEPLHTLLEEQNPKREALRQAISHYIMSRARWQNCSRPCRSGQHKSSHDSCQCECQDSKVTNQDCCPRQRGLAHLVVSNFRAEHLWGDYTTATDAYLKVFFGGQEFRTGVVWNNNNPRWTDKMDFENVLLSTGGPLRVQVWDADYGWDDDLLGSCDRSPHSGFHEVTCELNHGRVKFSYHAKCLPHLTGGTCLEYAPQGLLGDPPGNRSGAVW", "parameters": "method as in PMID 22244072", "settings": "2 vs HTS hit 1; cited from earlier work"}, "[1]": {"test_system": "perforin delivered by KHYG-1 NK cells", "experiment": "KHYG-1 cytotoxicity assay: lysis of K562 target cells by KHYG-1 NK cells (51Cr release)", "format": "cell-based, human", "settings": "for inhibition at 20 µM: Homo sapiens, KHYG-1 NK, read-out: KHYG-1 inhibition (% at 20 μM), compound 20 μM; for inhibition at 20 µM / KHYG-1 inhibition (% at 20 μM): perforin-induced lysis of K562 target cells co-incubated with KHYG-1 human NK cells, vs untreated control; for KHYG-1 inhibition (% at 20 μM): compound 20 μM; for Activity against perforin delivered by whole KHYG-1 NK cells (in words): whole human NK cells, K562 targets", "method": "(§1) The compounds were then evaluated for their ability to block the effect of perforin delivered by whole KHYG-1 NK cells (Table 2). Employing whole NK cells is a more rigorous model of conditions in vivo than the use of isolated recombinant protein since effector cell identification of the labelled target cell and formation of an immune synapse are required for perforin release. […] After co-incubation of inhibitor with KHYG-1 NK cells in medium for 30 min at room temperature, ^51Cr-labelled K562 leukaemia target cells were added and cell lysis evaluated after 4 h incubation at 37 °C by measuring ^51Cr release. […] Viable and dead cells were counted and percent viability calculated based on total cell count (for further details see Supplementary data). […] For the purposes of this work, compounds are classified as toxic if NK cell viability falls below 70%. This is due to the importance of CTLs and NK cells in the overall immunological response which means that it is essential that any pharmacological intervention allows rapid recovery of these cytotoxic effector cells for normal immunological function.\nKHYG-1 cells were washed and re-suspended in RPMI + 0.1% BSA at 4 × 10^5 cells/mL, and an amount of 50 μL of KHYG-1 cells was dispensed to each well of a 96-well V-bottom plate. RPMI (50 μL) + 0.1% BSA or 10% (final concentration) of serum was added to each well. Then test compounds were added to KHYG-1 cells at various concentrations up to 20 μM and incubated at room temperature for […]. 1 × 10^6 K562 target cells were labelled with 75 μCi ^51Cr in 200 μL of RPMI for 90 min at 37 °C. Cells were washed as described above and re-suspended in 5 mL of RPMI + 0.1% BSA. An amount of 50 μL of ^51Cr labelled K562 leukaemia target cells was added to each well of the KHYG-1 plate (effector/target 2:1) and incubated at 37 °C for 4 h. ^51Cr release was assayed using a Skatron harvesting press and radioactivity estimated on a Wallac Wizard 1470 automatic γ counter (Turku, Finland). The percentage of specific cytotoxicity was calculated using the following formula:\n% specific lysis = […]\n(maximum release - spontaneous release)\nand expressed as the mean of triplicate assays ± standard error of the mean."}, "[2]": {"experiment": "Toxicity to KHYG-1 NK cells (Trypan blue exclusion)", "settings": "human", "method": "as §1\nThe toxicity assay was carried out in exactly the same manner as the killing assay above, but instead of adding the labelled K562 target cells, 100 μL of RPMI 0.1% BSA was added. Cells were incubated for 4 h at 37 °C and then washed ×3 in RPMI + 0.1% BSA. Cells were then re-suspended in 200 μL of complete medium and incubated for 18−24 h at 37 °C. Trypan blue was added to each well. Viable (clear) cells and total (clear + blue) cells were counted, and the percentage of viable cells was calculated compared to DMSO treated cell control (% viability)."}, "[3]": {"experiment": "Plasma stability, mouse plasma", "format": "in vitro ADME", "settings": "% parent remaining at 24 h, 37 °C", "method": "(§2) Preliminary stability studies were carried out by incubation in human or mouse plasma at 37 °C with the percentage parent remaining measured at 24 h (Table 2). […] In mouse plasma the ratio of open to closed is 50:50%, while in human plasma this shifts to 90:10 due to the strong affinity of human serum albumin for the ring-opened form.[20] It is likely that the same phenomenon is operating in the present case and while not necessarily an issue for mouse studies, will need to be addressed in future work.\n(§3) Incubation method - Mouse (CD-1, male) and human (pooled) plasma pH was adjusted to 7.4 with either 1M phosphoric acid or sodium hydroxide. Plasma was spiked with 100 uM of test compounds and divided into two parts; one part was immediately transferred to -80 °C (control), and the second part was incubated at 37 °C at 24 h.\n(§4) At the end of the study duration, samples were transferred to -80 °C until ready to analyse by HPLC-DAD. On the day of analysis, control and incubated samples were thawed on wet ice and mixed.\n(§5) Sample treatment for HPLC - 20 uL of samples were mixed with 80 uL (1:4 v/v) ice cold acetonitrile to precipitate the plasma proteins, centrifuged at 13,000 rpm for 5 min to obtain the clear supernatant. The supernatant was diluted with 0.01% formic acid– water (1:2 v/v) and 50 uL was injected onto the HPLC system (Agilent).\n(§6) Calculation: The % loss was calculated based on peak area using the following formula: (peak area time “0”- peak area time “24h”)/peak area time “0” multiplied by 100. % Remaining = 100 - % loss."}, "[4]": {"experiment": "Plasma stability, human plasma", "format": "in vitro ADME", "settings": "% parent remaining at 24 h, 37 °C", "method": "as §2, §3, §4, §5, §6"}, "Solubility in water": {"experiment": "Solubility in water", "settings": "water"}}, "data": [{"smiles": "O=C1NC(=S)N/C1=C/c1ccc(-c2ccc3c(c2)COC3=O)o1", "note": "[Compound 1]", "values": [{"measurement": "Inhibition of perforin-mediated lysis of SRBC (in words)", "setting": "perforin", "result": "reproducibly inhibit"}]}, {"smiles": "O=C1NC(=S)N/C1=C/c1ccc(-c2ccc3c(c2)COC3=O)s1", "note": "[Compound 2]", "values": [{"measurement": "Fold improvement in inhibition of isolated perforin protein function over 1", "setting": "recombinant perforin", "result": "~8", "unit": "fold"}]}, {"smiles": "NC(=O)c1ccc(-c2ccc(-c3ccc4c(c3)COC4=O)s2)cc1", "note": "[Compound 23]", "values": [{"measurement": "inhibition at 20 µM", "setting": "[1]", "result": 60, "unit": "%"}, {"measurement": "KHYG-1 inhibition (% at 20 μM)", "setting": "[1]; 20 µM", "result": 63, "unit": "%"}, {"measurement": "Activity against perforin delivered by whole KHYG-1 NK cells (in words)", "setting": "[1]", "result": "excellent activity"}, {"measurement": "viability at 24 h, 20 µM", "setting": "[2]", "result": 90, "unit": "%"}, {"measurement": "Plasma stability (% at 24 h) Mouse", "setting": "[3]", "result": 75, "unit": "%"}, {"measurement": "Plasma stability (% at 24 h) Human", "setting": "[4]", "result": 46, "unit": "%"}]}, {"smiles": "NC(=O)c1ccc(-c2ccc(-c3ccc4c(c3)COC4=O)s2)cc1O", "note": "[Compound 48]", "values": [{"measurement": "inhibition at 20 µM", "setting": "[1]", "result": 20, "unit": "%"}, {"measurement": "Activity against perforin delivered by whole KHYG-1 NK cells (in words)", "setting": "[1]", "result": "poor or no activity"}, {"measurement": "viability at 24 h, 20 µM", "setting": "[2]", "result": 92, "unit": "%"}, {"measurement": "Plasma stability (% at 24 h) Mouse", "setting": "[3]", "result": 75, "unit": "%"}, {"measurement": "Plasma stability (% at 24 h) Human", "setting": "[4]", "result": 49, "unit": "%"}, {"measurement": "solubility", "setting": "Solubility in water", "result": 0.023, "unit": "µg/mL"}]}, {"smiles": "O=C1OCc2cc(-c3ccc(-c4ccc(CO)cc4)s3)ccc21", "note": "[Compound 59]", "values": [{"measurement": "inhibition at 20 µM", "setting": "[1]", "result": 13, "unit": "%"}, {"measurement": "Activity against perforin delivered by whole KHYG-1 NK cells (in words)", "setting": "[1]", "result": "poor or no activity"}, {"measurement": "viability at 24 h, 20 µM", "setting": "[2]", "result": 79, "unit": "%"}, {"measurement": "Plasma stability (% at 24 h) Mouse", "setting": "[3]", "result": 87, "unit": "%"}, {"measurement": "Plasma stability (% at 24 h) Human", "setting": "[4]", "result": 73, "unit": "%"}]}, {"smiles": "CS(=O)(=O)Nc1ccc(-c2ccc(-c3ccc4c(c3)COC4=O)s2)cc1", "note": "[Compound 63]", "values": [{"measurement": "KHYG-1 inhibition (% at 20 μM)", "setting": "[1]", "result": "No activity"}, {"measurement": "Activity against perforin delivered by whole KHYG-1 NK cells (in words)", "setting": "[1]", "result": "poor or no activity"}, {"measurement": "Plasma stability (% at 24 h) Mouse", "setting": "[3]", "result": 80, "unit": "%"}, {"measurement": "Plasma stability (% at 24 h) Human", "setting": "[4]", "result": 70, "unit": "%"}]}, {"smiles": "NC(=O)c1ccc(-c2ccc(-c3ccc4c(c3)COC4=O)s2)cn1", "note": "[Compound 67]", "values": [{"measurement": "inhibition at 20 µM", "setting": "[1]", "result": 80, "unit": "%"}, {"measurement": "Activity against perforin delivered by whole KHYG-1 NK cells (in words)", "setting": "[1]", "result": "excellent activity"}, {"measurement": "viability at 24 h, 20 µM", "setting": "[2]", "result": 82, "unit": "%"}, {"measurement": "Plasma stability (% at 24 h) Mouse", "setting": "[3]", "result": 66, "unit": "%"}, {"measurement": "Plasma stability (% at 24 h) Human", "setting": "[4]", "result": 39, "unit": "%"}, {"measurement": "solubility", "setting": "Solubility in water", "result": 0.204, "unit": "µg/mL"}]}]}
